Data set [1] can be described thus: Assay for plasma protein binding rate (equilibrium dialysis), rat plasma. Format: in vitro ADME. The conditions noted are these: dialysis 6 h at 37 °C, read-out: Rat (Fu%). The protocol:
1.1 Preparation of compounds: The compounds prepared in the examples were each dissolved in dimethylsulfoxide to give solutions at a concentration of 10 mmol/L. • 1) The example compounds were each diluted from 10 mmol/L stock solution to 0.2 mmol/L, i.e., 1 µL of the compound was added to 49 µL of DMSO; • 2) 3 µL of 0.2 mmol/L test compounds were added to 597 µL of blood plasma, and the mixtures were vortexed at 1000 rpm for 2 min; • 3) 50 µL of the plasma containing the drug in 2) was taken, 50 µL of PBS was added, and 300 µL of methanol internal standard* was added to serve as a sample T0; • 4) 120 µL of the plasma containing the drug in 2) was taken and added to one side of an HTD device membrane, and 120 µL of PBS was added to the other side of the membrane; a breathable film was covered, and the plasma and the residual sample in 2) were balanced at 37 °C (100 rpm and 5% CO2) for 6 h; • 5) 50 µL of the dialyzed plasma side sample was taken, 50 µL of PBS was added, and 300 µL of methanol internal standard* was added to serve as a sample P; • 6) 50 µL of the dialyzed PBS side sample was taken, 50 µL of blank plasma was added, and 300 µL of methanol internal standard* was added to serve as a sample B; • 7) 50 µL of the plasma containing the drug in 2) was taken, 50 µL of PBS was added, and 300 µL of methanol internal standard* was added to serve as a sample T6; • 8) All samples were vortexed, mixed homogeneously, and then centrifuged at 3220 g for 40 min at 4 °C; • 9) 100 µL of the supernatant and 100 µL of purified water were mixed homogenously for liquid chromatography-mass spectrometry.
An internal standard method was used, and the plasma protein binding rate, recovery rate, and residual percentage were calculated by using Excel according to the ratio of the peak area of the sample to the peak area of the internal standard. Free rate(%) = (RatioB)/(RatioP) × 100% [formula] Binding rate(%) = 100%−Free rate% [formula] Recovery rate(%) = (RatioB + RatioP)/(RatioT0) × 100% [formula] Remaining percentage(%) = (RatioT6)/(RatioT0) × 100% [formula]
RatioB: a ratio of the peak area of the test substance on the PBS side to the peak area of the internal standard; RatioP: a ratio of the peak area of the test substance on the plasma side to the peak area of the internal standard; RatioT6: a ratio of the peak area of the sample after incubation with the test substance for 6 h to the peak area of the internal standard; RatioT0: a ratio of the peak area of the sample after incubation with the test substance for 0 h to the peak area of the internal standard. Table 8. Plasma protein binding rate (Fu%) data for various species of example compounds
On the technique in general: In equilibrium dialysis free small molecules cross a membrane that holds back macromolecules.

Data set [2] concerns CYP3A. Briefly: Inhibitory effect on P450 enzymes in vitro (human liver microsomes), CYP3A. Conditions: final concentration 10 µM; for inhibition at 5 min, 10 µM: probe midazolam, substrate midazolam, read-out: % inhibition rate CYP3A (midazolam); for inhibition at 10 min, 10 µM: probe testosterone, substrate testosterone, read-out: % inhibition rate CYP3A (testosterone). Format: in vitro ADME. The protocol: 1.1 Preparation of compounds: The compounds prepared in the examples were each dissolved in dimethylsulfoxide to give solutions at a concentration of 2 mmol/L.
1.2 Test methods: • 1) Incubation system: human liver microsomes, a MgCl2 solution, a phosphate buffer solution, and a substrate solution were each added a 96-well deep-well plate and mixed homogenously. In the final incubation system, the concentration of the human liver microsomes was 0.2 mg/mL, and the final concentrations of the MgCl2 solution and the phosphate buffer solution were 5 mM and 100 mM, respectively. • 2) 1 µL of the substrate solution was added to the incubation system, and the final concentrations of CYP1A2 phenacetin, 2C8 paclitaxel […], 2C19 mephenytoin, 2D6 midazolam, and 3A midazolam substrates were 40 µM (phenacetin), 5 µM (paclitaxel), 50 µM (mephenytoin), 10 µM (mephenytoin), 5 µM (midazolam), and 50 µM […], respectively. • 3) 1 µL of the example compound or vehicle (DMSO) was added to the incubation system, and the incubation system was pre-warmed for 5 min in a 37 °C water bath before starting the reaction with 20 µL of 10 mM NADPH solution.
1.3 Sample treatment: Within the designated time (20 min for phenacetin, 10 min for paclitaxel, 20 min for mephenytoin, 20 min for dextromethorphan, 5 min for midazolam, and 10 min for testosterone), 400 µL of methanol containing the internal standard was added to terminate the reaction, and the mixture was vortexed and mixed homogeneously. Then, the deep-well plate was centrifuged at 3220 g and 4 °C for 40 min. 100 µL of the supernatant was transferred into a new plate, and 150 µL of purified water was added. The mixture was mixed homogenously for LC-MS/MS analysis. Table 11. Inhibitory effects of some compounds in the examples on CYP enzymes
Background: Liver microsomes are vesicles of endoplasmic reticulum, rich in cytochrome P450 enzymes.

Data set [3] can be described thus: In-vivo pharmacokinetic study in beagle dogs. Set-up: species or system male beagle dogs. Conditions: dog, plasma, po, intragastric administration. Here is the method: 1.1 Instrument: high-performance liquid chromatograph: SHIMADZU LC-30AD; mass spectrum: AB SCIEX mass spectrometer Triple Quad 5500; all measured data were calculated and processed using Microsoft Excel, and relevant pharmacokinetic parameters were calculated using WinNonlin software. […] Chromatographic column: Agilent EC-C18 2.7 µm (50 × 2.1 mm); column temperature: 40 °C; mobile phase A: water (0.1% formic acid); mobile phase B: acetonitrile; flow rate: 0.60 mL/min; gradient elution; elution gradient: 0.30 min: 5% B; 1.90 min: 95% B; 2.20 min: 95% B; 2.21 min: 5% B; 2.50 min: stop. Sample injection amount: 10 µL.
1.2 Animals: 3 male beagle dogs were used. The body weight range was 8-15 kg. The beagle dogs were fasted 12 h before administration and 4 h after administration, and given ad libitum access to water during the assay.
1.3 Vehicle: 0.5% HPMC (hydroxypropyl methylcellulose) + 0.4% Tween80 + 99.1% water.
After the intragastric administration, blood samples were taken at 0.25 h, 0.5 h, 1 h, 2 h, 4 h, 6 h, 8 h, 10 h, 12 h, 24 h, and 48 h. The blood collection mode is as follows: venipuncture was used, EDTA-K2 was used as an anticoagulation agent, the collected blood sample was transferred into a microcentrifuge tube containing the anticoagulation agent, and the tube was centrifuged at 4 °C and 2000 g for 10 min to separate the plasma. All plasma samples collected were stored at -75±15 °C until analysis.
1.4 Plasma sample pretreatment: 50 µL of the plasma sample was taken, and 200 µL of an internal standard solution prepared with acetonitrile was added for precipitation; subsequently, the sample was vortexed for 1 min and mixed homogenously; the precipitated sample was centrifuged at 4 °C and 3900 rpm for 15 min; the supernatant was pipetted, and water was added for 3-fold dilution; 10 µL of the sample was injected; and quantitative analysis was performed by adopting a liquid chromatography-mass spectrometry technology.
All measured data were collected and processed by the relevant software, and pharmacokinetic parameters were calculated using Winnonlin software. Pharmacokinetic parameters of some compounds in the examples in beagle dogs

Where [4] appears, read: male, 1 mg/kg, read-out: AUC0-48h.

Like-named read-outs stand apart in the source and are kept apart here. Bounds are passed on as bounds.

For the compound `COc1cc2c(cc1S(=O)(=O)Nc1noc3cc(Cn4cccn4)nc(OC)c13)CCCC2` [Example 2, N-(6-((1H-Pyrazol-1-yl)methyl)-4-methoxyisoxazolo[4,5-c]pyridin-3-yl)-3-methoxy-5,6,7,8-tetrahydronaphthalene-2-sulfonamide], the fraction unbound at 6 h, 1 µM in data set [1] was 0.0167. In data set [2], the inhibition at 5 min, 10 µM was -5.22% and the inhibition at 10 min, 10 µM came out at 5.84%. In data set [3] (male, beagle, 0.6 mg/kg), the half-life was 173 h. Besides, in data set [3] (male, 0.6 mg/kg), the AUC(0-inf) was 379000 ng·h/mL, the peak level (Cmax) was 1800 ng/mL and the Tmax turned out to be 4 h. Besides, the AUC(0-t) in data set [3] (male, 0.6 mg/kg, read-out: AUC0-48h) was 66500 ng·h/mL.
As to `COc1ccc2c(c1S(=O)(=O)Nc1noc3cc(Cn4cccn4)nc(OC)c13)OCC2` [Example 9, N-(6-((1H-Pyrazol-1-yl)methyl)-4-methoxyisoxazolo[4,5-c]pyridin-3-yl)-6-methoxy-2,3-dihydrobenzofuran-7-sulfonamide], the fraction unbound at 6 h, 1 µM in data set [1] turned out to be 0.0257. Moreover, in data set [3] (male, beagle, 1 mg/kg), the half-life is not above 15 h. Further, in data set [3] (male, 1 mg/kg), the total exposure AUC(0-inf) was found to be 122000 ng·h/mL, the peak level (Cmax) was 9230 ng/mL and the Tmax was 1.33 h. Besides, the AUC(0-t) in data set [3] (setting [4]) was 114000 ng·h/mL.
Consider `COc1ccc2ccoc2c1S(=O)(=O)Nc1noc2cc(Cn3cccn3)nc(OC)c12` [Example 10, N-(6-((1H-Pyrazol-1-yl)methyl)-4-methoxyisoxazolo[4,5-c]pyridin-3-yl)-6-methoxybenzofuran-7-sulfonamide], for which the fraction unbound at 6 h, 1 µM in data set [1] was found to be 0.0132. In data set [2], the inhibition at 5 min, 10 µM was -4.28% and the inhibition at 10 min, 10 µM is -2.93%. In data set [3] (male, beagle, 1 mg/kg), this compound returned a half-life not above 15 h. In data set [3] (male, 1 mg/kg), the AUC(0-inf) stood at 47500 ng·h/mL, the concentration peaked (Cmax) at 6250 ng/mL and the Tmax came to 0.83 h. Besides, the AUC(0-t) in data set [3] (setting [4]) was 46700 ng·h/mL.
Take `COc1cc2c(cc1S(=O)(=O)Nc1noc3cc(Cn4cccn4)nc(OC)c13)OCC2` [Example 59, N-(6-((1H-Pyrazol-1-yl)methyl)-4-methoxyisoxazolo[4,5-c]pyridin-3-yl)-5-methoxy-2,3-dihydrobenzofuran-6-sulfonamide]: the fraction unbound at 6 h, 1 µM in data set [1] worked out at 0.0414. In data set [2], the inhibition at 5 min, 10 µM was -12.1% and the inhibition at 10 min, 10 µM was -7.66%. The same compound yielded a half-life in data set [3] (male, beagle, 1 mg/kg) not above 15 h. In data set [3] (male, 1 mg/kg), the AUC(0-inf) stood at 55900 ng·h/mL, the highest concentration (Cmax) is 8380 ng/mL and the Tmax is 0.67 h. In addition, in data set [3] (setting [4]), the AUC(0-t) amounted to 55500 ng·h/mL.
Consider `COc1cc2c(cc1S(=O)(=O)Nc1noc3cc(Cn4cccn4)nc(OC)c13)CCCO2` [Example 76, N-(6-((1H-Pyrazol-1-yl)methyl)-4-methoxyisoxazolo[4,5-c]pyridin-3-yl)-7-methoxy-3,4-dihydro-1H-benzopyran-6-sulfonamide], for which, in data set [1], the fraction unbound at 6 h, 1 µM came out at 0.0144. In addition, in data set [3] (1 mg/kg), the AUC(0-inf) came to 749000 ng·h/mL, the Cmax stood at 14000 ng/mL, the Tmax came out at 2 h and the half-life was 45.4 h. For the same compound, the AUC(0-t) at 48 h in data set [3] (1 mg/kg, read-out: AUC0-48h) came out at 225000 ng·h/mL.

A word on the inhibition: it is the relative decrease from the control value, in per cent. As usually defined, the half-life is how long it takes for the measured level to halve. Low values mean rapid decline, high ones slow decline. As a reminder, the AUC(0-inf) is total exposure, with the tail of the curve extrapolated. What is called Cmax is the maximum level reached in the sampled fluid or tissue. In general, Tmax refers to the time from dosing to the highest level.

The record behind these values is EP4692094A1 (Beijing Konruns Pharmaceutical Co., Ltd., priority 2023, dated 2024).
